Entries after “also recorded” stand apart in the source; their conditions may differ. Where no end group is shown, it is not given here.
What was measured:
RSV = assay: Infectivity inhibition by natural and synthetic RIP, RSV in HEp2; type: cell-based, respiratory syncytial virus; details: 10 μg/ml; for Log TCID/50: six days
Protocol: (§1) Infectivity Inhibition of RNA Viruses by Synthetic RIP: For comparison, the natural and the synthetic RIPs were tested in cell cultures infected with different RNA viruses. The cell line MA 104 was used for infecting rotavirus SA 11 strain. HEp2 cells were used for infecting RSV and PIV3 viruses. The cells were infected in serial dilutions from 10^−2 to 10^−8; three wells were used for each dilution. After absorption of the virus, the cultures were divided into three groups. Group one received medium containing PBS as a positive control, group two received medium containing 10 μg/ml of natural RIP, and for the remaining group the medium was incorporated with 10 μg/ml synthetic RIP. The tests were read after six days and TCID/50 were calculated from CPE.
The approved drug ribovirin was tested for RSV virus in HEp2 cells at 10 μg/ml concentration. […] Synthetic RIP should be more inhibitory by increasing the concentration.

rotavirus strain SA 11 = assay: Biological activity of trypsin fragments and synthetic versions, MA104 cells infected with rotavirus; type: cell-based; details: tested at 20, 10, 5, 2.5, and 1.0 μg/ml
Protocol: Biological Activity of Fragments: Initially, the inhibitory activity of the fragments was tested on African green monkey kidney cells MA104 infected with rotavirus strain SA 11. Dulbecco Modified Eagle's Medium (DMEM) containing 10% newborn calf serum (NBCS), L-glutamine and the antibiotics penicillin and streptomycin was used to grow MA 104 and HEp2 cells into monolayers after being monodispersed with a mixture of trypsin/EDTA. The same medium without serum, containing 1 μg/ml trypsin, designated as “special medium,” was used after infecting MA 104 cells with SA 11 virus including the controls. Initially, each fraction was tested on monolayers of MA 104 cells grown in 48 well plates and infected at 10^−2 dilution of SA 11 virus. Before infecting, MA 104 cells were washed with serum free medium. The virus was allowed to absorb for 1 hour at 37° C. in a humid CO2 incubator. After absorption, 0.9 ml of medium was added to each well. Each fraction was tested at the concentration of 20, 10, 5, 2.5, and 1.0 μg/ml. Cells infected with virus received PBS to serve as positive controls, for virus CPE. The tests were read after six days.
The sequencing and synthesis was contracted out to the Protein Core Laboratory of Baylor College of Medicine, Houston, Tex.

PIV3 = assay: Infectivity inhibition by natural and synthetic RIP, PIV3 in HEp2; type: cell-based, human parainfluenza type 3; details: 10 μg/ml
Protocol: as §1

rotavirus SA 11 strain = assay: Infectivity inhibition by natural and synthetic RIP, rotavirus in MA 104; type: cell-based; details: 10 μg/ml; for Log TCID/50: six days
Protocol: as §1

## NC(=O)c1ncn([C@@H]2O[C@H](CO)[C@@H](O)[C@H]2O)n1 [ribovirin, reference compound]
RSV
  Log TCID/50: 5.4 Log TCID/50

## A K A G S (AKAGS; SYNTHESIZED. CORRESPONDS TO POSITIONS 1-5 OF SEQ. ID. NO. 2) [SEQ. ID. NO.: 5, synthetic version, five amino acids]
Rotavirus strain SA 11
  antiviral activity (inhibition of rotavirus) of fragment and synthetic versions: good results

## A K A G S D N T K G G V Y P M (ALAGSDNTKGGVYPM; SYNTHESIZED. CORRESPONDS TO POSITIONS 1-15 OF SEQ. ID. NO. 2) [SEQ. ID. NO.: 3, synthetic version, 15 amino acids]
Rotavirus strain SA 11
  antiviral activity (inhibition of rotavirus) of fragment and synthetic versions: effective; also recorded: good results

## AKAGSDNTKG [synthetic RIP]
PIV3
  Log Inhibition of infectivity: 2.0 Log
PIV3; six days
  Log TCID/50: 5.8 Log TCID/50
Rotavirus strain SA 11; listed as SEQ. ID. NO.: 4
  antiviral activity (inhibition of rotavirus) of fragment and synthetic versions: most active domain; also recorded: good results
Rotavirus strain SA 11; listed as SEQ. ID. No.: 4
  antiviral activity (inhibition of rotavirus) of fragment and synthetic versions: the most inhibition
RSV
  Log Inhibition of infectivity: 1.7 Log
  Log TCID/50: 5.8 Log TCID/50
RSV; listed as Syn RIP
  Log TCID/50: 4.5 Log TCID/50
Rotavirus SA 11 strain
  Log Inhibition of infectivity: 1.9 Log
  Log TCID/50: 4.5 Log TCID/50
Rotavirus SA 11 strain; listed as Syn RIP
  Log TCID/50: 4.3 Log TCID/50

## AKAGSDNTKGGVYPMFGM [SEQ ID. NO.: 2]
Rotavirus strain SA 11
  antiviral activity (inhibition of rotavirus) of fragment and synthetic versions: most active fragment
Rotavirus strain SA 11; listed as SEQ. ID. NO.: 2
  antiviral activity (inhibition of rotavirus) of fragment and synthetic versions: effective; also recorded: good results

Reference: US6924353B2, “Inhibitors for RNA viruses” (priority 2003, dated 2005)
